Assay results from patent US20250188042A1, “HETEROCYCLIC COMPOUND, PREPARATION METHOD THEREFOR, AND USE THEREOF” (SICHUAN UNIVERSITY, priority 2023, published 2025).

Each molecule was assayed on HSC-4 (assay: CCK8 proliferation assay on squamous cell carcinoma cell line HSC-4). Conditions: Homo sapiens, second of two lines listed (HSC-3, HSC-4), 48 h, read-out: IC50 against SCC cells (second of two SCC cells).
Assay type: cell-based
Experimental: (§1) Squamous cell carcinoma cell lines: HSC-3, HSC-4.
(§2) The above two tumor cell lines were cultured in a standardized incubator at 37° C. under 5% CO2; the cells in logarithmic growth phase were digested and counted, followed by seeding in a 96-well plate at 3000 cells/well, and then cultured overnight in an incubator. The stock solution of each compound was prepared using DMSO at a concentration of 10 mM, and diluted sequentially (0, 1.25, 2.5, 5, 10 μM) before treating the cells. The control group was added with the highest concentration of DMSO, and then cultivated continuously in an incubator for 48 h. The CCK8 cell proliferation kit was used to detect the effect of each compound on the proliferation of tumor cells. Moreover, the experimental results of representative compounds were analyzed, and their IC50 values were calculated to evaluate the effect of the compounds on the proliferation of tumor cells.

Compound | IC50 [µM]
O=C(CCn1ccc(=O)n(CCC(=O)Nc2ccc(C34CC5CC(CC(C5)C3)C4)cc2)c1=O)Nc1ccc(C23CC4CC(CC(C4)C2)C3)cc1 [Compound 8a] | 9.87

The molecules below were run on SCC cells (assay: CCK8 proliferation assay on SCC cells (cell line not specified)). Conditions: SCC cell line not stated (HSC-3 or HSC-4), 48 h, read-out: IC50 against SCC cells.
Assay type: cell-based
Experimental: as §1, §2

Compound | IC50 [µM]
O=C(CCn1cc(Cl)c(=O)n(CCC(=O)Nc2ccc(C34CC5CC(CC(C5)C3)C4)cc2)c1=O)Nc1ccc(C23CC4CC(CC(C4)C2)C3)cc1 [Compound 16a] | 9.66
Nc1ccn(CCC(=O)Nc2ccc(C34CC5CC(CC(C5)C3)C4)cc2)c(=O)n1 [Compound 24] | 1.48
CCc1cn(CCC(=O)Nc2ccc(C34CC5CC(CC(C5)C3)C4)cc2)c(=O)n(CCC(=O)Nc2ccc(C34CC5CC(CC(C5)C3)C4)cc2)c1=O [Compound 10a] | 6.18
N#Cc1cn(CCC(=O)Nc2ccc(C34CC5CC(CC(C5)C3)C4)cc2)c(=O)n(CCC(=O)Nc2ccc(C34CC5CC(CC(C5)C3)C4)cc2)c1=O [Compound 12a] | 9.54
COc1cn(CCC(=O)Nc2ccc(C34CC5CC(CC(C5)C3)C4)cc2)c(=O)n(CCC(=O)Nc2ccc(C34CC5CC(CC(C5)C3)C4)cc2)c1=O [Compound 14a] | 6.18
O=C(CCn1cc(Br)c(=O)n(CCC(=O)Nc2ccc(C34CC5CC(CC(C5)C3)C4)cc2)c1=O)Nc1ccc(C23CC4CC(CC(C4)C2)C3)cc1 [Compound 18a] | 4.85
O=C(CCn1cc(I)c(=O)n(CCC(=O)Nc2ccc(C34CC5CC(CC(C5)C3)C4)cc2)c1=O)Nc1ccc(C23CC4CC(CC(C4)C2)C3)cc1 [Compound 20a] | 4.86

Each molecule was assayed on HSC-3 (assay: CCK8 proliferation assay on squamous cell carcinoma cell line HSC-3). Conditions: Homo sapiens, first of two lines listed (HSC-3, HSC-4), 48 h, read-out: IC50 against SCC cells (first of two SCC cells).
Assay type: cell-based
Experimental: as §1, §2

Compound | IC50 [µM]
O=C(CCn1ccc(=O)n(CCC(=O)Nc2ccc(C34CC5CC(CC(C5)C3)C4)cc2)c1=O)Nc1ccc(C23CC4CC(CC(C4)C2)C3)cc1 [Compound 8a] | 4.85
